“And” between values parts separate entries of the source, which are not always exact repeats. Equal entries are not always repeated. One block for each compound: values may come before it.
Tested on: 993429-296-R-J1-PDC complex spheroid growth, percent test/control
Test: Anticancer human tumor 993429-296-R-J1-PDC patient-derived uterine sarcoma cell line growth inhibition [Asc]
Details: for viability, T/C: stronger effect = lower value
Protocol: Multicellular complex tumor spheroid response to apoptosis pathway targeting inhibitors Alrizomadlin, Pelcitoclax, and Dasminapant in combination with a variety of drugs and investigational agents in selected tumor cell lines
The MDM2 inhibitor alrizomadlin, the Bcl-2/Bcl-xL inhibitor pelcitoclax, and the IAPs inhibitor dasminapant were evaluated both individually and in combination with standard of care and investigational anticancer small molecules within a complex spheroid model of solid tumors. . Complex spheroids include a stromal component modeled by human endothelial cells (HUVEC) and fibroblasts modeled by human mesenchymal stem cells (MSCs). The concentration ranges selected for each drug and investigational agent were based upon clinically achievable concentrations if the clinical Cmax of the agent was known.
Compounds. The drugs and investigational agents: alrizomadlin (APG-115; NSC831270), pelcitoclax (APG-1252; NSC835773), dasminapant (APG-1387;NSC834197), TAK-243 (NSC785004), copanlisib (NSC809693), olaparib (NSC753686), talazoparib (NSC767125), cobimetinib (NSC 768068), eltanexor (KPT-8602, NSC 794443), abemaciclib (NSC 768073), sotorasib (NSC818433), adagrasib (NSC 831453), MRTX-1133 (NSC 836407), Iadademestat (ORY1001, NSC 806812), and RMC-4630 (NSC839698), were obtained from the NCI Developmental Therapeutics Program Chemical Repository. The FDA-approved anticancer drug set is available from the Developmental Therapeutics Program at https://dtp.cancer.gov/organization/dscb/obtaining/available plates.htm. […] The stock solutions were prepared in dimethyl sulfoxide (DMSO, Sigma-Aldrich, St. Louis, MO, cat. D2650) at 800-fold the tested concentration and stored at -70 degrees C prior to their use. All drugs and investigational agents were tested over a range starting from a high concentration at or near the clinical Cmax and decreasing in half-log increments. If the clinical Cmax for an agent had not been determined, the highest concentration tested was 10 microM.
The patient-derived cancer (PDC) cell lines include five colon adenocarcinomas: 186277-243-T-J2-PDC, 616215-338-R-J1-PDC, 439559-082-T-J2-PDC, 463943-066-T-J2-PDC, and 519858-162-T-J1-PDC; three pancreatic carcinomas: 323965-272-R-J2-PDC, 521955-158-R6-J3-PDC, and 521955-158-R2-J5-PDC; two uterine sarcomas: 327498-152-R-J2-PDC and 993429-296-R-J1-PDC; two rhabdomyosarcomas: 755483-174-R-J1-PDC and 772245-204-R-J1-PDC; two soft tissue sarcomas: 126254-015-R-J1-PDC and 494315-158-R-J1-PDC; two malignant fibrous histiocytomas: 317291-083-R-J1-PDC and 596521-263-R-J1-PDC; two breast carcinomas: 171881-019-R-J1-PDC and 885512-296-R-J2-PDC; and one ovarian carcinoma: 6556581-035-R-J-PDC were obtained from the NCI PDMR, (https://pdmr.cancer.gov). The established cell lines HSSY-2 synovial sarcoma (RRID:CVCL 8719), SYO-1 synovial sarcoma (RRID:CVCL_7146), MPNST malignant peripheral neural sheath tumor were obtained from the Sloan Kettering Institute. The following established cell lines were purchased from the American Type Culture Collection (ATCC, Manassas, VA), Sor the received from the NCI repository:, PANC-1 pancreatic carcinoma (CRL-1469, RRID:CVCL_0480), OVCAR-5 ovarian carcinoma (RRID:CVCL_1628), OVCAR-8 ovarian carcinoma (RRID:CVCL_1629), , MCF-7 breast carcinoma (CRL-12584, RRID:CVCL_0031), MDA-MB-231 breast carcinoma (CRL-12532, RRID:CVCL_0062), NCI-H1876 small cell lung carcinoma (CRL-5902, RRID:CVCL_1503), NCI-H510A small cell lung carcinoma (HTB-184, RRID:CVCL_1565), NCI-H1417 (CRL-5869, RRID:CVCL_1469), and NCI-H196 small cell lung carcinoma (CRL-5823, RRID:CVCL_1509). Dr. Peter Houghton (Greehey Children's Cancer Research Institute, University of Texas Health Science Center, San Antonio, TX) provided Rh-18 rhabdomyosarcoma (RRID:CVCL_1659). Pooled donor human umbilical vein endothelial cells (HUVEC, Lonza, cat. CC-2519) and human mesenchymal stem cells (hMSC, Lonza, cat. PT-2501) were purchased from Lonza (Walkersville, MD).
Cell Culture. […]
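Further: spheroids exposed to compounds for seven days.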

IC50 (curve of compound): > 1 µM
SMILES: CNC(C)C(=O)NC1CN(S(=O)(=O)c2cccc(S(=O)(=O)N3CCC4CCC(C(=O)NC(c5ccccc5)c5ccccc5)N4C(=O)C(NC(=O)C(C)NC)C3)c2)CCC2CCC(C(=O)NC(c3ccccc3)c3ccccc3)N2C1=O (stereo unspecified)
viability, T/C (compound 0.00316 µM): 80% and 76.5%
viability, T/C (compound 0.01 µM): 68.6% [middle of 15 runs]
viability, T/C (compound 0.0316 µM): 62.4% [middle of 15 runs]
viability, T/C (compound 0.1 µM): 55.9% [middle of 15 runs]
viability, T/C (compound 1 µM): 50.4% [middle of 15 runs]

IC50 (curve of first compound, second compound 0.01 µM): > 10 µM
IC50 (curve of first compound, second compound 0.0316 µM): > 10 µM
IC50 (curve of first compound, second compound 0.1 µM): > 10 µM
IC50 (curve of first compound, second compound 0.316 µM): > 10 µM
IC50 (curve of first compound, second compound 1 µM): > 10 µM
SMILES: C=CC(=O)N1CCN(c2nc(=O)n(-c3c(C)ccnc3C(C)C)c3nc(-c4c(O)cccc4F)c(F)cc23)C(C)C1 (stereo unspecified) + CNC(C)C(=O)NC1CN(S(=O)(=O)c2cccc(S(=O)(=O)N3CCC4CCC(C(=O)NC(c5ccccc5)c5ccccc5)N4C(=O)C(NC(=O)C(C)NC)C3)c2)CCC2CCC(C(=O)NC(c3ccccc3)c3ccccc3)N2C1=O
viability, T/C (second compound 0.01 µM, first compound 0.0316 µM): 58.3%
viability, T/C (second compound 0.01 µM, first compound 0.1 µM): 67.2%
viability, T/C (second compound 0.01 µM, first compound 0.316 µM): 71.1%
viability, T/C (second compound 0.01 µM, first compound 1 µM): 69.7%
viability, T/C (second compound 0.01 µM, first compound 3.16 µM): 75.1%
viability, T/C (second compound 0.01 µM, first compound 10 µM): 68.1%
viability, T/C (second compound 0.0316 µM, first compound 0.0316 µM): 58.9%
viability, T/C (second compound 0.0316 µM, first compound 0.1 µM): 65.8%
viability, T/C (second compound 0.0316 µM, first compound 0.316 µM): 66.2%
viability, T/C (second compound 0.0316 µM, first compound 1 µM): 49.3%
viability, T/C (second compound 0.0316 µM, first compound 3.16 µM): 62.8%
viability, T/C (second compound 0.0316 µM, first compound 10 µM): 61.2%
viability, T/C (second compound 0.1 µM, first compound 0.0316 µM): 56.7%
viability, T/C (second compound 0.1 µM, first compound 0.1 µM): 49.8%
viability, T/C (second compound 0.1 µM, first compound 0.316 µM): 62.8%
viability, T/C (second compound 0.1 µM, first compound 1 µM): 65%
viability, T/C (second compound 0.1 µM, first compound 3.16 µM): 59.9%
viability, T/C (second compound 0.1 µM, first compound 10 µM): 64.5%
viability, T/C (second compound 0.316 µM, first compound 0.0316 µM): 52.3%
viability, T/C (second compound 0.316 µM, first compound 0.1 µM): 48.6%
viability, T/C (second compound 0.316 µM, first compound 0.316 µM): 60.6%
viability, T/C (second compound 0.316 µM, first compound 1 µM): 55.9%
viability, T/C (second compound 0.316 µM, first compound 3.16 µM): 62.1%
viability, T/C (second compound 0.316 µM, first compound 10 µM): 59.5%
viability, T/C (second compound 1 µM, first compound 0.0316 µM): 51.7%
viability, T/C (second compound 1 µM, first compound 0.1 µM): 57.3%
viability, T/C (second compound 1 µM, first compound 0.316 µM): 61.5%
viability, T/C (second compound 1 µM, first compound 1 µM): 60.6%
viability, T/C (second compound 1 µM, first compound 3.16 µM): 59.2%
viability, T/C (second compound 1 µM, first compound 10 µM): 59%

Reference: PubChem BioAssay AID1963446 (Molecular Pharmacology Branch, DTP, NCI, 2024)
